US7629366B2, “Aminoalcohol derivatives” (Fujisawa Pharmaceutical Co., Ltd., priority 2002, dated 2009)

Test system: increase in intravesical pressure induced by carbachol in anesthetized dog
Experiment: Effect on the increase in intravesical pressure induced by carbachol in anesthetized dog
Format: in vivo
Details: 0.032 mg/kg intravenously, 30 minutes before carbachol (1.8 μg/kg); female Beagle dogs under halothane anesthesia
Description: Effect on the increase in intravesical pressure induced by carbachol in anesthetized dog
Female Beagle dogs weighing 8.0-15.0 kg were fasted for 24 hours and maintained under halothane anesthesia. A 12F Foley catheter was lubricated with water soluble jelly, inserted into the urethral orifice and advanced approximately 10 cm until the balloon tip was placed well inside the bladder. The balloon was then inflated with 5 ml of room air and catheter slowly withdrawn just part the first resistance that is felt at the bladder neck. Urine was completely drained out through the catheter, and 30 ml of biological saline was infused. The catheter was connected to pressure transducer, and intravesical pressure (IVP) was continuously recorded. The test compound was administered intravenously at 30 minutes before the administration of carbachol (1.8 μg/kg). Percent inhibition of IVP increase by test compound was calculated by dividing IVPa (IVP increase induced by carbachol after test compound administration) by IVPb (IVP increase induced by carbachol just before test compound administration).

| SMILES | Percent inhibition of IVP increase [%] |
| --- | --- |
| Cc1c(C(=O)O)ccc(-c2ccc(CCNC[C@H](O)c3cccc(Cl)c3)cc2)c1C.Cl [Test Compound (2), 4′-[2-[[(2R)-2-(3-Chlorophenyl)-2-hydroxyethyl]amino]-ethyl]-2,3-dimethyl-1,1′-biphenyl-4-carboxylic acid hydrochloride] | 91 |
| COc1cc(-c2ccc(C[C@@H](C)NC[C@H](O)c3cccnc3)cc2)ccc1C(=O)O.Cl.Cl [Test Compound (4), 4′-[(2R)-2-[[(2R)-2-Hydroxy-2-(3-pyridyl)ethyl]amino]-propyl]-3-methoxy-1,1′-biphenyl-4-carboxylic acid dihydrochloride] | 96 |
| Cc1cc(C(=O)O)ccc1-c1ccc(CCNC[C@H](O)c2cccnc2)cc1.Cl.Cl [Test Compound (3), 4′-[2-[[(2R)-2-Hydroxy-2-(3-pyridyl)ethyl]amino]ethyl]-2-methyl-1,1′-biphenyl-4-carboxylic acid dihydrochloride] | 86 |
| COc1cc(-c2ccc(C[C@@H](C)NC[C@H](O)c3ccccc3)cc2)ccc1C(=O)O.Cl [Test Compound (1), 4′-[(2R)-2-[[(2R)-2-Phenyl-2-hydroxyethyl]amino]-propyl]-3-methoxy-1,1′-biphenyl-4-carboxylic acid hydrochloride] | 93 |
